Reference: patent publication US10344039B2, “Macrocyclic spirocarbamate derivatives as factor XIa inhibitors, pharmaceutically acceptable compositions and their use” (MERCK SHARP & DOHME CORP., priority 2015, dated 2019)

target: T1, purified human Factor XIa (Homo sapiens, UniProt P03951); test: Factor XIa Assay; format: biochemical; settings: purified human Factor XIa 40 pM; substrate Z-Gly-Pro-Arg-AFC 100 μM; 50 mM HEPES pH 7.4; read-out: Hu FXIa Ki
T1 construct: purified human Factor XIa; purchased Sekisui Diagnostics
Method: The effectiveness of a compound of the present invention as an inhibitor of Coagulation Factor XIa can be determined using a relevant purified serine protease, and an appropriate synthetic substrate. The rate of hydrolysis of the chromogenic or fluorogenic substrate by the relevant serine protease was measured both in the absence and presence of compounds of the present invention. Assays were conducted at room temperature or at 37° C. […] A decrease in the rate of fluorescence change in the presence of inhibitor is indicative of enzyme inhibition. Such methods are known to one skilled in the art. The results of this assay are expressed as the inhibitory constant, Ki.
Factor XIa determinations were made in 50 mM HEPES buffer at pH 7.4 containing 150 mM NaCl, 5 mM CaCl2, and 0.1% PEG 8000 (polyethylene glycol; JT Baker or Fisher Scientific). Determinations were made using purified human Factor XIa at a final concentration of 40 pM (Sekisui Diagnostics) and he synthetic substrate, Z-Gly-Pro-Arg-AFC, TFA salt (Sigma #C0980) at a concentration of 100 μM.
Activity assays were performed by diluting a stock solution of substrate at least tenfold to a final concentration ≤0.1 Km into a solution containing enzyme or enzyme equilibrated with inhibitor. Times required to achieve equilibration between enzyme and inhibitor were determined in control experiments. Initial velocities of product formation in the absence (Vo) or presence of inhibitor (Vi) were measured. Assuming competitive inhibition, and that unity is negligible compared Km/[S], [I]/e, and [I]/e (where [S], [I], and e respectively represent the total concentrations, of substrate, inhibitor and enzyme), the equilibrium constant (Ki) for dissociation of the inhibitor from the enzyme can be obtained from the dependence of Vo/Vi on [I] shown in the following equation. Vo/Vi=1+[I]/Ki
The activities shown by this assay indicate that the compounds of the invention may be therapeutically useful for treating or preventing various cardiovascular and/or cerebrovascular thromboembolic conditions in patients suffering from unstable angina, acute coronary syndrome, refractory angina, myocardial infarction, transient ischemic attacks, atrial fibrillation, stroke such as thrombotic stroke or embolic stroke, venous thrombosis, coronary and cerebral arterial thrombosis, cerebral and pulmonary embolism, atherosclerosis, deep vein thrombosis, disseminated intravascular coagulation, and reocclusion or restenosis of recanalized vessels. The Ki values measured for each of the example compounds of the invention using this assay are reported in the tables above (as “Hu FXIa Ki (nM)”).

T1 sequence (P03951 388-625 limits assumed): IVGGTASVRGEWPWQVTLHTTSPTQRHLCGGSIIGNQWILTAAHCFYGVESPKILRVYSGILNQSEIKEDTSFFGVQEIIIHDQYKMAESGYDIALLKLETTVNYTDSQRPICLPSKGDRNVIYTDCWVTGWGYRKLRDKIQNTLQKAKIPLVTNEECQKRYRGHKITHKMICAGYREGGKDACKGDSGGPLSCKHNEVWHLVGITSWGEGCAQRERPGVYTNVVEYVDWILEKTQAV
T1 sequence (P03951 19-387 partner limits assumed): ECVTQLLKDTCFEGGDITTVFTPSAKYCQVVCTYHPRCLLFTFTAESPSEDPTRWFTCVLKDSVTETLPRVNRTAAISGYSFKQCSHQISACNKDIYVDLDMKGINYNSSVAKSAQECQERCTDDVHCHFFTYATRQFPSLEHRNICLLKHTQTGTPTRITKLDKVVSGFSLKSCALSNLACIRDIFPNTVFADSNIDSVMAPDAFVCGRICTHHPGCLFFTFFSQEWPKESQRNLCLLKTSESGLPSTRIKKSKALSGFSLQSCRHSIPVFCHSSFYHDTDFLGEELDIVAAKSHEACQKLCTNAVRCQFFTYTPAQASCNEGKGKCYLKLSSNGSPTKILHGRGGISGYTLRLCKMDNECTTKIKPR

Going from `COC(=O)Nc1ccc2c(c1)NC(=O)CCCC[C@H](C(=O)N1CC[C@@]3(C1)OC(=O)Nc1ccc(Cl)cc13)c1nc-2c[nH]1` (single isomer, unassigned) [Example 1b] to `COC(=O)Nc1ccc2c(c1)NC(=O)CCCC[C@H](C(=O)N1CCC[C@@]3(C1)OC(=O)Nc1ccc(Cl)cc13)c1nc-2c[nH]1` [Example 3b, methyl ((S,Z)-9-((R)-6-chloro-2-oxo-1,2-dihydrospiro[benzo[d][1,3]oxazine-4,3′-piperidine]-1′-carbonyl)-4-oxo-1^1H-3-aza-1(4,2)-imidazola-2(1,2)-benzenacyclononaphane-2^4-yl)carbamate], the Ki falls from 258 nM to 65 nM (4-fold). The second binds more tightly here.

Going from `O=C1CCCC[C@@H](C(=O)N2CCC[C@@]3(C2)OC(=O)Nc2ccc(Cl)cc23)c2nc(c[nH]2)-c2ccc(F)cc2N1` (single isomer, unassigned) [Example 2a] to `O=C1CCCC[C@H](C(=O)N2CCC[C@@]3(C2)OC(=O)Nc2ccc(Cl)cc23)c2nc(c[nH]2)-c2ccc(F)cc2N1` (single isomer, unassigned) [Example 2b], the Ki rises from 268 nM to over 5000 nM. The first binds more tightly here.

Going from `COC(=O)Nc1ccc2c(c1)NC(=O)CCCC[C@H](C(=O)N1CCC[C@@]3(C1)OC(=O)Nc1ccc(Cl)c(F)c13)c1nc-2c(C)[nH]1` (single isomer, unassigned) [Example 12a] to `COC(=O)Nc1ccc2c(c1)NC(=O)CCCC[C@H](C(=O)N1CC[C@@]3(C1)OC(=O)Nc1ccc(Cl)c(F)c13)c1nc-2c(C)[nH]1` [Example 13a, methyl ((S,Z)-9-((R)-6-chloro-5-fluoro-2-oxo-1,2-dihydrospiro[benzo[d][1,3]oxazine-4,3′-pyrrolidine]-1′-carbonyl)-1^5-methyl-4-oxo-1^1H-3-aza-1(4,2)-imidazola-2(1,2)-benzenacyclononaphane-2^4-yl)carbamate], the Ki falls from 471 nM to 195 nM (2.4-fold).

Going from `COC(=O)Nc1ccc2c(c1)NC(=O)C(C)CCCC(C(=O)N1CCC[C@@]3(C1)OC(=O)Nc1ccc(Cl)cc13)c1cc-2ccn1` (single isomer, unassigned) [Example 15b] to `COC(=O)Nc1ccc2c(c1)NC(=O)CCCCC[C@H](C(=O)N1CCC[C@@]3(C1)OC(=O)Nc1ccc(Cl)cc13)c1cc-2ccn1` [Example 16a, methyl ((S)-10-((R)-6-chloro-2-oxo-1,2-dihydrospiro[benzo[d][1,3]oxazine-4,3′-piperidine]-1′-carbonyl)-4-oxo-3-aza-1(4,2)-pyridina-2(1,2)-benzenacyclodecaphane-2^4-yl)carbamate], the Ki rises from 749 nM to over 875 nM. The first binds more tightly here.

First: COC(=O)Nc1ccc2c(c1)NC(=O)C(C)CCCC(C(=O)N1CCC[C@@]3(C1)OC(=O)Nc1ccc(Cl)cc13)c1cc-2ccn1 (single isomer, unassigned) [Example 15c]
Second: COC(=O)Nc1ccc2c(c1)NC(=O)CCCCC[C@@H](C(=O)N1CCC[C@@]3(C1)OC(=O)Nc1ccc(Cl)cc13)c1cc-2ccn1 [Example 16b, methyl ((R)-10-((R)-6-chloro-2-oxo-1,2-dihydrospiro[benzo[d][1,3]oxazine-4,3′-piperidine]-1′-carbonyl)-4-oxo-3-aza-1(4,2)-pyridina-2(1,2)-benzenacyclodecaphane-2^4-yl)carbamate]
The Ki of the first is 6.2-fold higher: 1760 nM for the first, 284 nM for the second.

`COC(=O)Nc1ccc2c(c1)NC(=O)C(C)CCCC(C(=O)N1CCC[C@@]3(C1)OC(=O)Nc1ccc(Cl)cc13)c1cc-2ccn1` (single isomer, unassigned) [Example 15d] and `COC(=O)Nc1ccc2c(c1)NC(=O)CCCC[C@H](C(=O)N1CC[C@@]3(C1)OC(=O)Nc1ccc(Cl)cc13)c1cc-2ccn1` [Example 17b, methyl ((S)-9-((R)-6-chloro-2-oxo-1,2-dihydrospiro[benzo[d][1,3]oxazine-4,3′-pyrrolidine]-1′-carbonyl)-4-oxo-3-aza-1(4,2)-pyridina-2(1,2)-benzenacyclononaphane-2^4-yl)carbamate] cannot be ordered by Ki: over 5000 nM for the first, over 8750 nM for the second.

`Nc1ccc2c(c1)NC(=O)CC/C=C\C[C@H](C(=O)N1CCC[C@@]3(C1)OC(=O)Nc1ccc(Cl)c(F)c13)c1cc-2ccn1` (single isomer, unassigned) [Example 20b] and `O=C1Nc2ccc(Cl)c(F)c2[C@@]2(CCCN(C(=O)C3CCCCC(C(=O)O)Nc4ccc(F)cc4-c4ccnc3c4)C2)O1` (single isomer, unassigned) [Example 35a] cannot be ordered by Ki: over 875 nM for the first, over 875 nM for the second.

Compared with `COC(=O)Nc1ccc2c(c1)NC(=O)CCCC[C@H](C(=O)N1CC[C@@]3(C1)OC(=O)Nc1ccc(Cl)c(F)c13)c1cccc-2n1` (single isomer, unassigned) [Example 23a], `COC(=O)Nc1ccc2c(c1)NC(=O)[C@H](C)CCC[C@H](C(=O)N1CCC[C@@]3(C1)OC(=O)Nc1ccc(Cl)c(F)c13)C1=NC=C2O1` [Example 14b, methyl ((5R,9S)-9-((R)-6-chloro-5-fluoro-2-oxo-1,2-dihydrospiro[benzo[d][1,3]oxazine-4,3′-piperidine]-1′-carbonyl)-5-methyl-4-oxo-3-aza-1(5,2)-oxazola-2(1,2)-benzenacyclononaphane-2^4-yl)carbamate] is lower in Ki: over 875 nM for the first, 217 nM for the second.

First: CCOC(=O)C1CCCCC(C(=O)N2CCC[C@@]3(C2)OC(=O)Nc2ccc(Cl)c(F)c23)c2nc(c[nH]2)-c2ccc(NC(=O)OC)cc2N1 (single isomer, unassigned) [Example 32a]
Second: CCOC(=O)C1CCCCC(C(=O)N2CCC[C@@]3(C2)OC(=O)Nc2ccc(Cl)c(F)c23)c2cc(ccn2)-c2cc(F)ccc2N1 (single isomer, unassigned) [Example 34a]
The Ki of the first is 4.4-fold lower: 143 nM for the first, 628 nM for the second. The first binds more tightly here.

Compared with `CCOC(=O)C1CCCCC(C(=O)N2CCC[C@@]3(C2)OC(=O)Nc2ccc(Cl)c(F)c23)c2nc(c[nH]2)-c2ccc(NC(=O)OC)cc2N1` (single isomer, unassigned) [Example 32c], `CCOC(=O)C1CCCCC(C(=O)N2CCC[C@@]3(C2)OC(=O)Nc2ccc(Cl)c(F)c23)c2cc(ccn2)-c2cc(F)ccc2N1` (single isomer, unassigned) [Example 34b] is higher in Ki: 536 nM for the first, over 875 nM for the second. The first binds more tightly here.

Compared with `CCOC(=O)C1CCCCC(C(=O)N2CCC[C@@]3(C2)OC(=O)Nc2ccc(Cl)c(F)c23)c2nc(c[nH]2)-c2ccc(NC(=O)OC)cc2N1` (single isomer, unassigned) [Example 32d], `CCOC(=O)C1CCCCC(C(=O)N2CCC[C@@]3(C2)OC(=O)Nc2ccc(Cl)c(F)c23)c2cc(ccn2)-c2cc(F)ccc2N1` (single isomer, unassigned) [Example 34c] is lower in Ki: over 875 nM for the first, 196 nM for the second. The second binds more tightly here.

`CCOC(=O)C1CCCCC(C(=O)N2CCC[C@@]3(C2)OC(=O)Nc2ccc(Cl)c(F)c23)c2cc(ccn2)-c2cc(F)ccc2N1` (single isomer, unassigned) [Example 34d] and `CCOC(=O)C1CCCCC(C(=O)N2CC[C@@]3(C2)OC(=O)Nc2ccc(Cl)c(F)c23)c2cc(ccn2)-c2cc(F)ccc2N1` (single isomer, unassigned) [Example 36a] cannot be ordered by Ki: over 875 nM for the first, over 875 nM for the second.

`O=C1Nc2ccc(Cl)c(F)c2[C@@]2(CCCN(C(=O)C3CCCCC(C(=O)O)Nc4ccc(F)cc4-c4ccnc3c4)C2)O1` (single isomer, unassigned) [Example 35b] and `O=C1Nc2ccc(Cl)c(F)c2[C@@]2(CCN(C(=O)C3CCCCC(C(=O)O)Nc4ccc(F)cc4-c4ccnc3c4)C2)O1` (single isomer, unassigned) [Example 37a] cannot be ordered by Ki: over 875 nM for the first, over 875 nM for the second.

`CCOC(=O)C1CCCCC(C(=O)N2CC[C@@]3(C2)OC(=O)Nc2ccc(Cl)c(F)c23)c2cc(ccn2)-c2cc(F)ccc2N1` (single isomer, unassigned) [Example 36b] and `O=C1Nc2ccc(Cl)c(F)c2[C@@]2(CCN(C(=O)C3CCCCC(C(=O)O)Nc4ccc(F)cc4-c4ccnc3c4)C2)O1` (single isomer, unassigned) [Example 37b] cannot be ordered by Ki: over 875 nM for the first, over 875 nM for the second.

First: O=C1CCCC[C@H](C(=O)N2CC[C@@]3(C2)OC(=O)Nc2ccc(Cl)cc23)c2nc(c[nH]2)-c2ccc(F)cc2N1 [Example 5a, (R)-6-chloro-1′-((S,Z)-2^4-fluoro-4-oxo-1^1H-3-aza-1(4,2)-imidazola-2(1,2)-benzenacyclononaphane-9-carbonyl)spiro[benzo[d][1,3]oxazine-4,3′-pyrrolidin]-2(1H)-one]
Second: COC(=O)Nc1ccc2c(c1)NC(=O)CCCC[C@H](C(=O)N1CCC[C@@]3(C1)OC(=O)Nc1ccc(Cl)cc13)c1nc-2c(Cl)[nH]1 [Example 7b, methyl ((S,Z)-1^5-chloro-9-((R)-6-chloro-2-oxo-1,2-dihydrospiro[benzo[d][1,3]oxazine-4,3′-piperidine]-1′-carbonyl)-4-oxo-1^1H-3-aza-1(4,2)-imidazola-2(1,2)-benzenacyclononaphane-2^4-yl)carbamate]
The Ki of the first is higher: over 8750 nM for the first, 1830 nM for the second. The second binds more tightly here.
